From patent US7915383B2, “Method of separating a peptidoglycan recognition protein from a hemolymph Tenebrio molitor larvae” (Yuhan Corporation, priority 2006, dated 2011)

Columns and labels:
amidase activity = assay: Amidase activity assay with Boc-Phe-Ser-Arg-MCA substrate; format: biochemical, Tenebrio molitor; settings: S. aureus PGN 1 μg plus synthetic PGN, 40 μM Boc-Phe-Ser-Arg-MCA, 30° C., fluorescence 380/460 nm; FIG. 6
Description: 10 μl of a 10% gram-positive S. aureus PGN (final concentration: 1 μg) solution and 10 μl of a 10% synthetic PGN (the compound 35 of Formula 3) solution were incubated in the presence of 40 μM trypsin MCA (t-butyloxycarbonyl-benzyl-L-phenylalanyl-L-seryl-L-arginine-4-methylcoumaryl-7-amide; Boc-Phe-Ser-Arg-MCA) as a substrate at 30° C., and fluorescence was measured at 380 nm (excitation wavelength) and 460 nm (emission wavelength) using a fluorescence spectrophotometer (model UV-160A, Shimadzu).

[1] = system: natural PGN-dependent PO activity in the hemolymph of Tenebrio molitor larvae; assay: Inhibition of natural PGN-dependent PO activity by synthetic PGN; format: biochemical
Description: (§1) PO activity was assayed according to a Pye-spectrophotometric method using a substrate solution (4-methylcatechol, and 4-hydroxyproline ethylester in HCl). 4-methylcatechol was oxidized to quinone by PO, which was then converted through a non-enzymatic reaction with 4-hydroxyproline ethylester in HCl to 4-(4′-hydroxyl-2′-carbethoxy-1′-pyrroline)-5-methyl-o-benzoquinone, a stable compound having maximum absorbance at 520 nm (see FIG. 2)
Each of 10 μl (1 μg) of a 10% β-1,3-glucan solution, 10 μl. (1 μg) of a 10% S. aureus PGN solution, 10 μl (10 ng) of a 10% M. luteus PGN solution, and 10 μl (1 μg) of a 10% synthetic PGN (for each of the compounds of Formulae 1-4) solution was incubated together with 30 μl (protein 350 μg) of the hemolymph of Tenebrio molitor larvae at 30° C. for 5 minutes. Then, 4 μl of 4-methylcatechol (250 mM), 16 μl of 4-hydroxyproline ethylester (62.5 mM) in HCl, and 5 μl of 1M CaCl2 (10 mM) were added thereto. […] The reaction mixture was incubated at 30° C. and the absorbance of the reaction solution was measured at 520 nm (see FIG. 3).
Meanwhile, PO activity was also measured in the presence of 1 μg of S. aureus PGN and 1 μg of each of the synthetic PGNs.
Furthermore, PO activity was also measured in the presence of 1 μg of S. aureus PGN with an incremental addition of the synthetic PGN of Formula 3 (0.2, 0.4, 0.8, and 1.5 μg).

[2] = system: PGN-dependent pro-PO cascade in the hemolymph of Tenebrio molitor larvae; assay: PO activity assay (Pye-spectrophotometric method): effect of natural or synthetic PGN on PO activation; format: biochemical; settings: 30 μl hemolymph (protein 350 μg), 1 μg test substance (10 ng M. luteus PGN), 30° C.; FIG. 3
Description: as §1
Each of 10 μl (1 μg) of a 10% β-1,3-glucan solution, 10 μl. (1 μg) of a 10% S. aureus PGN solution, 10 μl (10 ng) of a 10% M. luteus PGN solution, and 10 μl (1 μg) of a 10% synthetic PGN (for each of the compounds of Formulae 1-4) solution was incubated together with 30 μl (protein 350 μg) of the hemolymph of Tenebrio molitor larvae at 30° C. for 5 minutes. Then, 4 μl of 4-methylcatechol (250 mM), 16 μl of 4-hydroxyproline ethylester (62.5 mM) in HCl, and 5 μl of 1M CaCl2 (10 mM) were added thereto. Then, 20 mM Tris-HCl (pH 8.0) was added to a final volume of 500 μl. The reaction mixture was incubated at 30° C. and the absorbance of the reaction solution was measured at 520 nm (see FIG. 3).

| Substance | inhibition of amidase activity (amidase activity) | inhibition of PO activity with incremental addition of synthetic PGN ([1]; 1 μg of S. aureus PGN plus 0.2, 0.4, 0.8 and 1.5 μg synthetic PGN, FIG. 5) | inhibition of PGN-dependent PO activity ([1]; in the presence of 1 μg of S. aureus PGN and 1 μg of each synthetic PGN, FIG. 4) | activation of the PGN-dependent pro-PO cascade (PO activity, absorbance at 520 nm) [2] |
| --- | --- | --- | --- | --- |
| Tetrasaccharide Tetrapeptide [compound 35] | same inhibition pattern as the PO activity | inhibited in a synthetic PGN concentration-dependent manner | strongest competitive inhibitor |  |
| β-1,3-glucan |  |  |  | activated |
